Measurements published in PubChem BioAssay (NCI).
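Abbreviation: GI50, concentration required for 50% inhibition of growth. TGI marks complete inhibition of growth.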

Columns and labels:
Test in all cases: NCI-60 cell line screen, 384-well format
[1] = tested on: DU-145 prostate
[2] = tested on: SK-MEL-5 melanoma
[3] = tested on: NCI-H460 NSCLC
[4] = tested on: SN12C renal
[5] = tested on: NCI/ADR-RES ovarian
[6] = tested on: IGROV1 ovarian
[7] = tested on: MDA-MB-231 breast
[8] = tested on: CAKI-1 renal
[9] = tested on: KM12 colon
[10] = tested on: MCF7 breast
[11] = tested on: SF-539 CNS
[12] = tested on: EKVX NSCLC
[13] = tested on: NCI-H522 lung
[14] = tested on: COLO 205 colon
[15] = tested on: NCI-H226 lung
[16] = tested on: NCI-H23 lung
[17] = tested on: ACHN renal
[18] = tested on: HS 578T breast
[19] = tested on: SK-MEL-28 melanoma
[20] = tested on: HOP-62 NSCLC
[21] = tested on: HCC-2998 colon
[22] = tested on: SR leukemia
[23] = tested on: MDA-MB-468 breast
[24] = tested on: SK-OV-3 ovarian
[25] = tested on: HL-60(TB) leukemia
[26] = tested on: TK-10 renal
[27] = tested on: SNB-19 CNS
[28] = tested on: MOLT-4 leukemia
[29] = tested on: UACC-62 melanoma
[30] = tested on: SNB-75 CNS
[31] = tested on: A549 NSCLC
[32] = tested on: RPMI-8226 leukemia
[33] = tested on: HCT-116 colon
[34] = tested on: HCT-15 colon
[35] = tested on: SF-295 CNS
[36] = tested on: UACC-257 melanoma
[37] = tested on: SF-268 CNS
[38] = tested on: U251 glioblastoma
[39] = tested on: OVCAR-4 ovarian
[40] = tested on: BT-549 breast
[41] = tested on: MDA-MB-435 melanoma
[42] = tested on: OVCAR-3 ovarian
[43] = tested on: MALME-3M melanoma
[44] = tested on: M14 melanoma
[45] = tested on: A498 renal
[46] = tested on: NCI-H322M lung
[47] = tested on: HOP-92 NSCLC
[48] = tested on: PC-3 prostate
[49] = tested on: LOX IMVI melanoma
[50] = tested on: OVCAR-8 ovarian
[51] = tested on: OVCAR-5 ovarian
[52] = tested on: RXF 393 renal
[53] = tested on: HT29 colon
[54] = tested on: 786-0 renal
[55] = tested on: UO-31 renal
[56] = tested on: SW-620 colon
[57] = tested on: T-47D breast

O=C(NC1CCNCC1)c1[nH]ncc1NC(=O)c1c(Cl)cccc1Cl
GI50 [1]: 260 nM | TGI [1]: 692 nM | GI50 [2]: 183 nM | TGI [2]: 337 nM | GI50 [3]: 168 nM | TGI [3]: 379 nM | GI50 [4]: 181 nM | TGI [4]: 395 nM | GI50 [5]: > 100000 nM | TGI [5]: > 100000 nM | GI50 [6]: 286 nM | TGI [6]: 809 nM | GI50 [7]: 256 nM | TGI [7]: > 100000 nM | GI50 [8]: 371 nM | TGI [8]: > 100000 nM | GI50 [9]: 176 nM | TGI [9]: > 100000 nM | GI50 [10]: 59 nM | TGI [10]: > 100000 nM | GI50 [11]: 212 nM | TGI [11]: 454 nM | GI50 [12]: 366 nM | TGI [12]: 1830 nM | GI50 [13]: 202 nM | TGI [13]: 384 nM | GI50 [14]: 126 nM | TGI [14]: 391 nM | GI50 [15]: 205 nM | TGI [15]: 527 nM | GI50 [16]: 180 nM | TGI [16]: 345 nM | GI50 [17]: 2360 nM | TGI [17]: 34900 nM | GI50 [18]: 209 nM | TGI [18]: 477 nM | GI50 [19]: 187 nM | TGI [19]: 394 nM | GI50 [20]: 212 nM | TGI [20]: 500 nM | GI50 [21]: 151 nM | TGI [21]: 360 nM | GI50 [22]: 18.5 nM | TGI [22]: 37.3 nM | GI50 [23]: 157 nM | TGI [23]: 296 nM | GI50 [24]: 362 nM | TGI [24]: > 100000 nM | GI50 [25]: 105 nM | TGI [25]: 224 nM | GI50 [26]: 528 nM | TGI [26]: 9380 nM | GI50 [27]: 326 nM | TGI [27]: > 100000 nM | GI50 [28]: 200 nM | TGI [28]: 344 nM | GI50 [29]: 169 nM | TGI [29]: 369 nM | GI50 [30]: 194 nM | TGI [30]: 356 nM | GI50 [31]: 388 nM | TGI [31]: > 100000 nM | GI50 [32]: 200 nM | TGI [32]: 344 nM | GI50 [33]: 202 nM | TGI [33]: > 100000 nM | GI50 [34]: 3520 nM | TGI [34]: 43500 nM | GI50 [35]: 352 nM | TGI [35]: > 100000 nM | GI50 [36]: 246 nM | TGI [36]: 564 nM | GI50 [37]: 186 nM | TGI [37]: 478 nM | GI50 [38]: 268 nM | TGI [38]: 703 nM | GI50 [39]: 262 nM | TGI [39]: 560 nM | GI50 [40]: 183 nM | TGI [40]: 377 nM | GI50 [41]: 191 nM | TGI [41]: 379 nM | GI50 [42]: 163 nM | TGI [42]: 347 nM | GI50 [43]: 182 nM | TGI [43]: 348 nM | GI50 [44]: 257 nM | TGI [44]: 619 nM | GI50 [45]: 304 nM | TGI [45]: 879 nM | GI50 [46]: 197 nM | TGI [46]: 477 nM

Nc1cccc2c1CN(C1CCC(=O)NC1=O)C2=O (stereo unspecified)
GI50 [47]: > 100000 nM | TGI [47]: > 100000 nM | GI50 [1]: > 100000 nM | TGI [1]: > 100000 nM | GI50 [48]: > 100000 nM | TGI [48]: > 100000 nM | GI50 [2]: > 100000 nM | TGI [2]: > 100000 nM | GI50 [49]: > 100000 nM | TGI [49]: > 100000 nM | GI50 [3]: > 100000 nM | TGI [3]: > 100000 nM | GI50 [4]: > 100000 nM | TGI [4]: > 100000 nM | GI50 [5]: > 100000 nM | TGI [5]: > 100000 nM | GI50 [50]: > 100000 nM | TGI [50]: > 100000 nM | GI50 [6]: > 100000 nM | TGI [6]: > 100000 nM | GI50 [7]: > 100000 nM | TGI [7]: > 100000 nM | GI50 [8]: > 100000 nM | TGI [8]: > 100000 nM | GI50 [9]: > 100000 nM | TGI [9]: > 100000 nM | GI50 [51]: > 100000 nM | TGI [51]: > 100000 nM | GI50 [10]: > 100000 nM | TGI [10]: > 100000 nM | GI50 [11]: > 100000 nM | TGI [11]: > 100000 nM | GI50 [12]: > 100000 nM | TGI [12]: > 100000 nM | GI50 [13]: > 100000 nM | TGI [13]: > 100000 nM | GI50 [14]: > 100000 nM | TGI [14]: > 100000 nM | GI50 [15]: > 100000 nM | TGI [15]: > 100000 nM | GI50 [16]: > 100000 nM | TGI [16]: > 100000 nM | GI50 [52]: > 100000 nM | TGI [52]: > 100000 nM | GI50 [53]: > 100000 nM | TGI [53]: > 100000 nM | GI50 [17]: > 100000 nM | TGI [17]: > 100000 nM | GI50 [54]: > 100000 nM | TGI [54]: > 100000 nM | GI50 [18]: > 100000 nM | TGI [18]: > 100000 nM | GI50 [19]: > 100000 nM | TGI [19]: > 100000 nM | GI50 [20]: > 100000 nM | TGI [20]: > 100000 nM | GI50 [21]: > 100000 nM | TGI [21]: > 100000 nM | GI50 [55]: > 100000 nM | TGI [55]: > 100000 nM | GI50 [22]: > 100000 nM | TGI [22]: > 100000 nM | GI50 [23]: > 100000 nM | TGI [23]: > 100000 nM | GI50 [24]: > 100000 nM | TGI [24]: > 100000 nM | GI50 [25]: > 100000 nM | TGI [25]: > 100000 nM | GI50 [26]: > 100000 nM | TGI [26]: > 100000 nM | GI50 [56]: > 100000 nM | TGI [56]: > 100000 nM | GI50 [27]: > 100000 nM | TGI [27]: > 100000 nM | GI50 [28]: > 100000 nM | TGI [28]: > 100000 nM | GI50 [29]: > 100000 nM | TGI [29]: > 100000 nM | GI50 [57]: > 100000 nM | TGI [57]: > 100000 nM | GI50 [30]: > 100000 nM | TGI [30]: > 100000 nM | GI50 [31]: > 100000 nM | TGI [31]: > 100000 nM | GI50 [32]: > 100000 nM | TGI [32]: > 100000 nM | GI50 [33]: > 100000 nM | TGI [33]: > 100000 nM | GI50 [34]: > 100000 nM | TGI [34]: > 100000 nM | GI50 [35]: > 100000 nM | TGI [35]: > 100000 nM | GI50 [36]: > 100000 nM | TGI [36]: > 100000 nM | GI50 [37]: > 100000 nM | TGI [37]: > 100000 nM | GI50 [38]: > 100000 nM | TGI [38]: > 100000 nM | GI50 [39]: > 100000 nM | TGI [39]: > 100000 nM | GI50 [40]: > 100000 nM | TGI [40]: > 100000 nM | GI50 [41]: > 100000 nM | TGI [41]: > 100000 nM | GI50 [42]: > 100000 nM | TGI [42]: > 100000 nM | GI50 [43]: > 100000 nM | TGI [43]: > 100000 nM | GI50 [44]: > 100000 nM | TGI [44]: > 100000 nM | GI50 [45]: > 100000 nM | TGI [45]: > 100000 nM | GI50 [46]: > 100000 nM | TGI [46]: > 100000 nM
